From patent US9333197B2, “Apoptosis signal-regulating kinase inhibitor” (Gilead Sciences, Inc., priority 2012, dated 2016)
Like-named read-outs stand apart in the source and are kept apart here.

Legend:
[1] = system: Caco-2 cells; test: Determination of CACO-2 efflux ratio / permeability; assay type: in vitro ADME; details: for CACO A→B: apical to basolateral; for CACO B→A: basolateral to apical
Experimental: (§1) Caco-2 cells were maintained in Dulbecco's Modification of Eagle's Medium (DMEM) with sodium pyruvate, Glutmax supplemented with 1% Pen/Strep, 1% NEAA and 10% fetal bovine serum in an incubator set at 37° C., 90% humidity and 5% CO2. Caco-2 cells between passage 62 and 72 were seeded at 2100 cells/well and were grown to confluence over at least 21-days on 24 well PET (polyethylene-terephthalate) plates (BD Biosciences). The receiver well contained HBSS buffer (10 mM HEPES, 15 mM Glucose with pH adjusted to pH 6.5) supplemented with 1% BSA pH adjusted to pH 7.4. After an initial equilibration with transport buffer, TEER values were read to test membrane integrity. Buffers containing test compounds were added and 100 μl of solution was taken at 1 and 2 hrs from the receiver compartment. Removed buffer was replaced with fresh buffer and a correction is applied to all calculations for the removed material. The experiment was carried out in replicate. All samples were immediately collected into 400 μl 100% acetonitrile acid to precipitate protein and stabilize test compounds. Cells were dosed on the apical or basolateral side to determine forward (A to B) and reverse (B to A) permeability. Permeability through a cell free trans-well is also determined as a measure of cellular permeability through the membrane and non-specific binding. To test for non-specific binding and compound instability percent recovery is determined. Samples were analyzed by LC/MS/MS.
(§2) Vr and Vd is the volume in the receiver and donor compartment in cm^3, respectively. A is the area of the cell monolayer (0.33 cm^2). D0 and D120 is the measured donor concentration at the beginning and end of the experiment, respectively. R120 is the receiver concentration at the end of the experiment (120 minutes).

[2] = Rat pharmacokinetics, 1 mg/kg IV infusion and 5.0 mg/kg PO; assay type: in vivo; details: for clearance / Vd: 1 mg/kg IV infusion; for clearance: read-out: CL in rats (converted); for Vd: read-out: Vss in rats; for bioavailability: 5.0 mg/kg PO, read-out: oral bioavailability (% F) in rats
Experimental: For IV administration the test compound was formulated in 60:40 PEG 400:water with 1 equivalent HCl at 0.5 mg/mL.
For PO (oral) administration, the test compound was formulated in 5/75/10/10 ethanol/PG/solutol/water at 2.5 mg/mL.
IV and PO dosing groups each consisted of 3 male SD rats. […] The animals were fasted overnight prior to dose administration and up to 4 hr after dosing.
For the IV infusion group, the test compound was administered by intravenous infusion over 30 minutes. The rate of infusion was adjusted according to the body weight of each animal to deliver a dose of 1 mg/kg at 2 mL/kg. For the oral dosing group, the test article was administered by oral gavage at 2 mL/kg for a dose of 5.0 mg/kg.
Serial venous blood samples (approximately 0.4 mL each) were taken at specified time points after dosing from each animal. The blood samples were collected into Vacutainer™ tubes (Becton-Disckinson Corp, New Jersey, USA) containing EDTA as the anti-coagulant and were immediately placed on wet ice pending centrifugation for plasma.
An LC/MS/MS method was used to measure the concentration of test compound in plasma.
Non-compartmental pharmacokinetic analysis was performed on the plasma concentration-time data.

[3] = molecular target: CYP3A4 (Homo sapiens (Human), UniProt P08684); test: Cytochrome P450 inhibition IC50, CYP3A4 (midazolam and testosterone); assay type: in vitro ADME; details: for IC50: comparative table, testosterone substrate, read-out: Cyp3A4 IC50 Testesterone (TST)
Chain of CYP3A4 (P08684 whole entry): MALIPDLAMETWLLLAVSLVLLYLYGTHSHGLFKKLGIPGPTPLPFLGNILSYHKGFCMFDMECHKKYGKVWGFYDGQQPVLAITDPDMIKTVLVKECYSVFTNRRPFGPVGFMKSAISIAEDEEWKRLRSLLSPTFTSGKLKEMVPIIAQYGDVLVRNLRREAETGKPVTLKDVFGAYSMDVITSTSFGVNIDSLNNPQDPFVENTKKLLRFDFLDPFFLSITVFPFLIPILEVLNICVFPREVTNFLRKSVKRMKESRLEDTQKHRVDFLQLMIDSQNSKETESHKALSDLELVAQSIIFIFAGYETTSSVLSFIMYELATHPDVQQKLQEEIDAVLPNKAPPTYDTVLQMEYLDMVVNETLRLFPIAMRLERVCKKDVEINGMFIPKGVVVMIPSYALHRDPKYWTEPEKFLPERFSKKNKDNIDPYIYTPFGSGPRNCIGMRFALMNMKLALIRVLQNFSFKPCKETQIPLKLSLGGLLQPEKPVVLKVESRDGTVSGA

[4] = molecular target: ASK1 (Rattus norvegicus, UniProt A0A8I6AEL0); test: ASK1 293 cell-based assay (cellular EC50), AP-1:luciferase reporter
Chain of ASK1 (A0A8I6AEL0 1-1381): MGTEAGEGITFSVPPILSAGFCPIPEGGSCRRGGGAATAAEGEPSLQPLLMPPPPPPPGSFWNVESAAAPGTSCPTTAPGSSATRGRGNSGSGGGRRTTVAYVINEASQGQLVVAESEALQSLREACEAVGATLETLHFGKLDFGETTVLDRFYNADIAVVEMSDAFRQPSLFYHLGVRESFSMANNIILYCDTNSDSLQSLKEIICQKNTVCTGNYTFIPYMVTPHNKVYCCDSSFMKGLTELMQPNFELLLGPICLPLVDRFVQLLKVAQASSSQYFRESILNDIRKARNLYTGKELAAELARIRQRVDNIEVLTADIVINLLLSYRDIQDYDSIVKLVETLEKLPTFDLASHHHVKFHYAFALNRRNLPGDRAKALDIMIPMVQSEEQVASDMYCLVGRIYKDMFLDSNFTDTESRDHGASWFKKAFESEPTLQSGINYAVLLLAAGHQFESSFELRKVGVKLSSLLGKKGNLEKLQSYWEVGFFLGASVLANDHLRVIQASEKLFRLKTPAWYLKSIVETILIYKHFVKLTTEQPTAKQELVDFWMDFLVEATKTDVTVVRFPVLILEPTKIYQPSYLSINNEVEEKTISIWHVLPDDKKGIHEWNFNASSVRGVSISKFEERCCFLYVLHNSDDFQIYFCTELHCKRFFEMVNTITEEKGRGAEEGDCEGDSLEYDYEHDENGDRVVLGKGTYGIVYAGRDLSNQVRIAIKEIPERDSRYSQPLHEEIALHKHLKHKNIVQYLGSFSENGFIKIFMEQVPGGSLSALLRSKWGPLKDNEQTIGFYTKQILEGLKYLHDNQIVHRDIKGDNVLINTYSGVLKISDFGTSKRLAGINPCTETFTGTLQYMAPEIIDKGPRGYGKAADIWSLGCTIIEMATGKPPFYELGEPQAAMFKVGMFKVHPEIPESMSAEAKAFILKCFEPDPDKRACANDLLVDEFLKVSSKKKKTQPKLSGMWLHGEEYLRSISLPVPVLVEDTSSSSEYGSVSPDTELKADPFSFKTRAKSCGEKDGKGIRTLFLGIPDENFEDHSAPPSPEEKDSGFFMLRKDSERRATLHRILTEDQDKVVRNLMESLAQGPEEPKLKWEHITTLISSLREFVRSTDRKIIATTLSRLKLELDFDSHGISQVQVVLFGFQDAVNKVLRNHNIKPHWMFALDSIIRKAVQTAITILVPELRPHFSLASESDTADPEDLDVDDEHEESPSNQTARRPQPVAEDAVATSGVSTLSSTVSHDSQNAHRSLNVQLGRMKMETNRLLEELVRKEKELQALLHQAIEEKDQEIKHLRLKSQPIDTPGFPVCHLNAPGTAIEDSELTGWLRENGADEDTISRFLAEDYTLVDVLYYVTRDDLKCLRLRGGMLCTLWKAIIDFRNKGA
Experimental: 2. […] Promega Steady-Glo Luciferase Assay System product insert. 3. Media Required Complete Growth Medium, “CGM” DMEM (MediaTech) 10% FBS 1% PSG 100 ug/mL HygromycinB Assay Medium, “AM” DMEM (Invitrogen) 25 mM HEPES 1 mM Sodium Pyruvate 1% PSG 4. Methods Maintenance:
Count cells and dilute to 1.5×10^5 cells per mL; add adenovirus such that there are 5 infectious forming units per cell.
Prime (20 to 30 mL) and plate cells in Greiner poly-D-Lysine coated 384-well plates at 1.2×10^4 cells per well using BioTek uFill (80 uL per well).
Immediately dose plates with 0.4 uL of compound dose series (in 100% DMSO) incubate 24 hours in humidified incubator (37° C., 5% CO2).
Process plates (per manufacturer's instructions) as follows:
Remove 60 uL of AM from assay wells
Add 20 uL per well Steady-Glo Firefly substrate, let sit for 10-20 minutes at room temperature
Acquire data on a fluorescence plate reader

[5] = Determination of CACO-2 efflux ratio / permeability; assay type: in vitro ADME; details: human, Caco-2, pH 7.4; read-out: Efflux ratio (B/A)/(A/B)
Experimental: as §1, §2

[6] = 3 h, 2 μM, pH 7.4
Experimental: 1 mL Teflon dialysis cells from Harvard Apparatus (Holliston, Mass., USA) were used in these experiments. […] A nominal concentration of 2 μM of compound was spiked into 1 mL of plasma or 1 mL of cell culture media. The total volume of liquid on each side of the cell was 1 mL. After 3 hours equilibration in a 37° C. water bath, samples from each side of the cell were aliquoted into the appropriate vials containing either 1 mL of human plasma (cell culture media), or buffer. Sample vials were weighed and recorded. […] Samples were vortexed and centrifuged for 15 minutes at 12000 G. 200 μL of the supernatant was removed and placed into a new 96 well plate. An additional 200 μL of 1:1 ACN:water was added. The plate was then vortexed and subjected to LC-MS analysis. The percent unbound for an analyte in plasma was calculated using the following equations % Unbound=100(Cf/Ct) where Cf and Ct are the post-dialysis buffer and plasma concentrations, respectively.

[7] = Sprague-Dawley, rat, plasma, male SD rats

| SMILES | CACO A→B [1] | CACO B→A [1] | clearance [2, 7] | Vd [2, 7] | bioavailability [2, 7] | number of times compound of formula (I) shows an improvement over the indicated compound: % F in rats ([2]; rat, in vivo) | number of times compound of formula (I) shows an improvement over the indicated compound: CL in rats ([2]; rat, in vivo) | number of times compound of formula (I) shows an improvement over the indicated compound: t½ in rats ([2]; rat, in vivo) | number of times compound of formula (I) shows an improvement over the indicated compound: Cyp3A4 IC50 (TST) [3] | IC50 [3] | other results |
| --- | --- | --- | --- | --- | --- | --- | --- | --- | --- | --- | --- |
| CC(C)n1cnnc1-c1cccc(NC(=O)c2cccc(-n3cnc(C4CC4)c3)c2)n1 [Compound A] | 3.1 | 18.5 | 5 mL/min/kg | 0.17 L/kg | 11% | 6.8 X | 2.7 X | 8.6 X | 10 X | 1100 nM | t1/2 in rats ([2]; male SD rats): 0.59 h; number of times compound of formula (I) shows an improvement over the indicated compound: Vss in rats ([2]; rat, in vivo): 3.2 X |
| Cc1ccc(C(=O)Nc2cccc(-c3nncn3C3CC3)n2)cc1-n1cnc(C2CC2)c1 [Compound B] | 0.26 | 4 | 6.5 mL/min/kg | 0.54 L/kg | 50% | 1.5 X | 3.6 X | 3.9 X | 2.8 X | 4000 nM | number of times compound of formula (I) shows an improvement over the indicated compound: EC50 [4]: 9 X; number of times compound of formula (I) shows an improvement over the indicated compound: PBadj EC50 [4]: 33 X; EC50 ([4]; 293/AP1-Luc cells infected with adenovirus expressing kinase active ASK1, 24 hours): 18 nM; EC50 ([4]; protein binding adjusted EC50, read-out: PBadj EC50): 563 nM; efflux ratio at 120 min [5]: 15.4; half-life ([2]; Sprague-Dawley, rat, plasma, male SD rats, read-out: t1/2 in rats (converted)): 1.3 h; number of times compound of formula (I) shows an improvement over the indicated compound: Cyp3A4 IC50/PBAdj.EC50 [3]: 92 X; Cyp3A4 IC50/PBAdj.EC50 ([3]; ratio of Cyp3A4 inhibition and protein binding adjusted EC50): 7 |
| Cc1cc(F)c(C(=O)Nc2cccc(-c3nncn3C(C)C)n2)cc1-n1cnc(C2CC2)c1 [compound of formula (I), 5-(4-cyclopropyl-1H-imidazol-1-yl)-N-(6-(4-isopropyl-4H-1,2,4-triazol-3-yl)pyridin-2-yl)-2-fluoro-4-methylbenzamide] |  |  |  |  |  |  |  |  |  |  | Vd ([2]; rat, plasma, male SD rats): 0.55 L/kg; bioavailability ([2]; rat, plasma, male SD rats): 75%; percent unbound measured in human plasma [6]: 11.94% |
